Experimental findings from patent US7247734B2 (Vernalis (Cambridge) Limited, priority 2001, dated 2007) are described below.

Read-outs that look alike come from different tables or passages of the source.

This test concerns the target T1, yeast HSP90 (Saccharomyces cerevisiae, UniProt P02829).
T1 construct: made in house; host or cells: E. coli
As to the kind of experiment: Malachite green HSP90 ATPase assay. Format: biochemical. The note with it: 1 mM ATP, ±SD if n=3–5. The method in brief: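 E. coli-expressed yeast HSP90 ATPase activity measured as released inorganic phosphate by malachite green–molybdate colour (610 nm), with sodium citrate added to suppress non-enzymatic ATP hydrolysis. Assay buffer 100 mM Tris-HCl pH 7.4, 20 mM KCl, 6 mM MgCl2; compounds screened at 40 μM final.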

T1 sequence (P02829 whole entry, looked up): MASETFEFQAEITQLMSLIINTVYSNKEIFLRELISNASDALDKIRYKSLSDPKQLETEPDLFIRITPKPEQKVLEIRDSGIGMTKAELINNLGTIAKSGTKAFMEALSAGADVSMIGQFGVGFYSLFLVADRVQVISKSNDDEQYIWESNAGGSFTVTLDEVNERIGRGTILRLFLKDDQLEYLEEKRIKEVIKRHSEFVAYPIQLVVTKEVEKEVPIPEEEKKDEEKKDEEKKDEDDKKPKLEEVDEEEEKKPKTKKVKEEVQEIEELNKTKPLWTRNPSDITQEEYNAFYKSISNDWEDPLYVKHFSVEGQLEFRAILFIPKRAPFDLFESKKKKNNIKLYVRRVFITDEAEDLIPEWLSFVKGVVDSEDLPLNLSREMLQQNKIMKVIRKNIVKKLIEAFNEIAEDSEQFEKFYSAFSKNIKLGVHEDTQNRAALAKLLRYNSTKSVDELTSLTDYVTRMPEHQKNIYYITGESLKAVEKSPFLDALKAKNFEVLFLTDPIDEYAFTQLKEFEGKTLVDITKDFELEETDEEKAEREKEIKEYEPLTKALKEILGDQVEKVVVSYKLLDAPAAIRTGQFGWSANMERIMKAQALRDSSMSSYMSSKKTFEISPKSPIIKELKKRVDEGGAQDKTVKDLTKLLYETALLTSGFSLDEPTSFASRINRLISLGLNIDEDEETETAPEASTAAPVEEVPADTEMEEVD

In general, IC50 refers to the concentration that inhibits the measured activity by half. On to `Cc1[nH]nc(-c2ccc(O)cc2O)c1-c1ccc2c(c1)OCCO2` [CCT018157], for which the IC50 (malachite green assay, read-out: HSP90 ATPase inhibition IC50) was determined as 60.5 ± 8 µM.

Compound `CCc1cc(-c2n[nH]c(C)c2-c2ccc3c(c2)OCCO3)c(O)cc1O` [CCT018159, 4-[4-(2,3-Dihydro-benzo[1,4]dioxin-6-yl)-5-methyl-1H-pyrazol-3-yl]-6-ethyl-benzene-1,3-diol] had an IC50 (HSP90 ATPase inhibition IC50, malachite green assay) of 9.2 ± 0.65 µM.
